Test results from the supplement of paper PMC11061612.

Key:
Assay in all cases: Bliss excess, mean over the matrix (fraction); higher = more synergy
[1] = test system: MFH-ino (Other Solid Carcinomas)
Method in brief: (§1)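 Bliss excess equals the observed combination effect minus the expected value EA + EB − EA·EB, where EA and EB are the effects of each agent alone. Combination Emax is the second-highest inhibition within the matrix. Inhibition was scaled from CellTiter-Glo 2.0 luminescence, with 0 set by vehicle wells and 1 by blank wells, after 72 hours of two-drug dosing of cells plated in 1536-well plates.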

[2] = test system: HPAC (Pancreatic Carcinoma)
Method in brief: as §1

SN12C (Kidney Carcinoma) = test system: SN12C (Kidney Carcinoma)
Method in brief: as §1

[3] = test system: JiyoyeP-2003 (Burkitt's Lymphoma)
Method in brief: as §1

[4] = test system: EM-2 (Chronic Myelogenous Leukemia)
Method in brief: as §1

[5] = test system: MDA-MB-157 (Breast Carcinoma)
Method in brief: as §1

[6] = test system: NCI-H1793 (Lung Adenocarcinoma)
Method in brief: as §1

[7] = test system: CFPAC-1 (Pancreatic Carcinoma)
Method in brief: as §1

[8] = test system: 697 (B-Lymphoblastic Leukemia)
Method in brief: as §1

[9] = test system: SW780 (Bladder Carcinoma)
Method in brief: as §1

CAL-78 (Chondrosarcoma) = test system: CAL-78 (Chondrosarcoma)
Method in brief: as §1

[10] = test system: SNU-C5 (Colorectal Carcinoma)
Method in brief: as §1

[11] = test system: C3A (Hepatocellular Carcinoma)
Method in brief: as §1

[12] = test system: KATOIII (Gastric Carcinoma)
Method in brief: as §1

[13] = test system: KM-H2 (Hodgkin's Lymphoma)
Method in brief: as §1

[14] = test system: MDA-MB-231 (Breast Carcinoma)
Method in brief: as §1

[15] = test system: NALM-6 (B-Lymphoblastic Leukemia)
Method in brief: as §1

IGR-1 (Melanoma) = test system: IGR-1 (Melanoma)
Method in brief: as §1

[16] = test system: G-292-Clone-A141B1 (Osteosarcoma)
Method in brief: as §1

[17] = test system: KARPAS-620 (Plasma Cell Myeloma)
Method in brief: as §1

| Structure (SMILES) | Bliss excess [1] | Bliss excess [2] | Bliss excess (SN12C (Kidney Carcinoma)) | Bliss excess [3] | Bliss excess [4] | Bliss excess [5] | Bliss excess [6] | Bliss excess [7] | Bliss excess [8] | Bliss excess [9] | Bliss excess (CAL-78 (Chondrosarcoma)) | Bliss excess [10] | Bliss excess [11] | Bliss excess [12] | Bliss excess [13] | Bliss excess [14] | Bliss excess [15] | Bliss excess (IGR-1 (Melanoma)) | Bliss excess [16] | Bliss excess [17] |
| --- | --- | --- | --- | --- | --- | --- | --- | --- | --- | --- | --- | --- | --- | --- | --- | --- | --- | --- | --- | --- |
| C[C@@H](c1ccc2nccn2c1)n1nnc2ncc(-c3cnn(C)c3)nc21 [Savolitinib] + CC1(C)CCC(CN2CCN(c3ccc(C(=O)NS(=O)(=O)c4ccc(NCC5CCOCC5)c([N+](=O)[O-])c4)c(Oc4cnc5[nH]ccc5c4)c3)CC2)=C(c2ccc(Cl)cc2)C1 [Venetoclax] (first compound max 1 µM, 7x7, partner max 1 µM) | -0.0657 | -0.084 | -0.0152 | -0.0438 | -0.0593 | -0.0411 | -0.0566 | -0.0514 | -0.114 | -0.0671 | -0.0872 | -0.0596 | -0.0545 | -0.0364 | 0 | -0.0599 | 0.01 | -0.0583 | -0.0442 | -0.0449 |
| CC1(C)CCC(CN2CCN(c3ccc(C(=O)NS(=O)(=O)c4ccc(NCC5CCOCC5)c([N+](=O)[O-])c4)c(Oc4cnc5[nH]ccc5c4)c3)CC2)=C(c2ccc(Cl)cc2)C1 [Venetoclax] + C=CCn1c(=O)c2cnc(Nc3ccc(N4CCN(C)CC4)cc3)nc2n1-c1cccc(C(C)(C)O)n1 [AZD1775] (first compound max 1 µM, partner max 1 µM) | -0.0222 | -0.0565 | 0 | -0.0263 | -0.0094 | 0.0679 | -0.0007 | -0.0185 | 0.0509 | -0.0244 | -0.0817 | -0.0339 | -0.0511 | 0.0093 | 0.02 | -0.0666 | 0.119 | 0.0147 | -0.0023 | 0.0191 |
| COc1cccc(OCCCN)c1-c1cc(Nc2cnc(C#N)cn2)n[nH]1 [Prexasertib] + CCc1c2c(nc3ccc(O)cc13)-c1cc3c(c(=O)n1C2)COC(=O)[C@]3(O)CC [SN-38] (first compound max 1 µM, 7x7, partner max 0.3 µM) | -0.0321 | 0.0446 | -0.0237 | 0.0073 | -0.0352 | 0.0027 | -0.0209 | -0.107 | 0.0017 | -0.0348 | -0.0348 | -0.0375 | -0.112 | -0.0168 | -0.0411 | 0.0723 | -0.0555 | 0.0316 | 0.0081 | 0.0396 |
| Cc1c2c(nn1C)CSCc1cc(n(C)n1)CSc1cc(c3ccccc3c1)OCCCc1c(C(=O)O)n(C)c3c-2c(Cl)ccc13 [AZD5991] + C=CCn1c(=O)c2cnc(Nc3ccc(N4CCN(C)CC4)cc3)nc2n1-c1cccc(C(C)(C)O)n1 [AZD1775] (first compound max 1 µM, partner max 1 µM) | 0.0604 | -0.0132 | 0.0306 | -0.0253 | -0.0674 | 0.001 | -0.0329 | 0.0535 | -0.0264 | 0.0046 | -0.0193 | 0.0145 | 0.0084 | -0.029 | -0.0181 | -0.0812 | -0.0229 | 0.061 | -0.0178 | -0.0032 |
| Cc1cc2ncnn2cc1Nc1ncc2c(n1)n(C1CCOCC1)c(=O)n2C [AZD7648] + O=C(c1cc(Cc2n[nH]c(=O)c3ccccc23)ccc1F)N1CCN(C(=O)C2CC2)CC1 [Olaparib] (first compound max 10 µM, 7x7, partner max 10 µM) | -0.0705 | -0.0261 | -0.0469 | 0.0339 | 0.0036 | -0.0251 | -0.0616 | -0.0567 | 0.0076 | -0.0289 | -0.0726 | -0.0064 | -0.0505 | -0.0367 | -0.0127 | -0.0752 | -0.027 | -0.0032 | -0.0855 | -0.0306 |
| NC1(C(=O)N[C@@H](CCO)c2ccc(Cl)cc2)CCN(c2ncnc3[nH]ccc23)CC1 [Capivasertib] + Cn1cnc2c(F)c(Nc3ccc(Br)cc3Cl)c(C(=O)NOCCO)cc21 [Selumetinib] (first compound max 10 µM, 7x7, partner max 10 µM) | -0.0205 | 0.0152 | 0.0041 | 0.101 | 0.0766 | -0.014 | -0.0292 | 0.0351 | -0.165 | 0.0066 | -0.0369 | 0.0154 | -0.0208 | 0.0291 | -0.0084 | -0.007 | 0.0323 | 0.103 | -0.0056 | 0.114 |
| Cc1cc2ncnn2cc1Nc1ncc2c(n1)n(C1CCOCC1)c(=O)n2C [AZD7648] + C[C@@H]1COCCN1C2=NC(=NC(=C2)C3(CC3)[S@](=N)(=O)C)C4=C5C=CNC5=NC=C4 [AZD6738] (first compound max 10 µM, 7x7, partner max 10 µM) | -0.0002 | 0.0187 | 0.0264 | 0.0127 | -0.0013 | -0.0029 | -0.0059 | -0.0108 | -0.009 | 0.0476 | 0.0344 | 0.0455 | 0.0722 | -0.064 | 0.0227 | 0.037 | -0.0561 | 0.0074 | 0.0274 | -0.0283 |
| CC(=O)c1c(C)c2cnc(Nc3ccc(N4CCNCC4)cn3)nc2n(C2CCCC2)c1=O [Palbociclib] + CC1(C)CCC(CN2CCN(c3ccc(C(=O)NS(=O)(=O)c4ccc(NCC5CCOCC5)c([N+](=O)[O-])c4)c(Oc4cnc5[nH]ccc5c4)c3)CC2)=C(c2ccc(Cl)cc2)C1 [Venetoclax] (first compound max 10 µM, 7x7, partner max 1 µM) | -0.0576 | -0.0619 | -0.0525 | 0.0975 | 0.0262 | -0.0348 | -0.0136 | 0.015 | -0.0738 | -0.0395 | -0.0333 | -0.017 | 0.0437 | -0.0606 | -0.0011 | -0.0242 | 0.0132 | -0.0267 | -0.0368 | 0.0056 |
| Cc1c2c(nn1C)CSCc1cc(n(C)n1)CSc1cc(c3ccccc3c1)OCCCc1c(C(=O)O)n(C)c3c-2c(Cl)ccc13 [AZD5991] + Cc1cc2ncnn2cc1Nc1ncc2c(n1)n(C1CCOCC1)c(=O)n2C [AZD7648] (first compound max 1 µM, 7x7, partner max 10 µM) | -0.018 | -0.0679 | -0.0335 | 0.0725 | 0.0206 | -0.0214 | -0.0112 | -0.002 | -0.0603 | -0.0193 | -0.0448 | -0.0085 | -0.0312 | -0.0305 | 0.0203 | -0.0397 | -0.0303 | -0.0642 | -0.0274 | 0.0308 |
| COc1nnc2ccc(N3CCC(c4ccc(OCCN5CCN(C)C(=O)[C@H]5C)cc4)CC3)nn12 [AZD5153] + CCN(CCO)CCCOc1ccc2c(Nc3cc(CC(=O)Nc4cccc(F)c4)[nH]n3)ncnc2c1 [AZD2811] (first compound max 1 µM, 7x7, partner max 1 µM) | -0.0811 | -0.0283 | 0.0129 | 0.0351 | -0.001 | -0.0004 | -0.0381 | -0.088 | -0.0118 | -0.0766 | -0.0564 | -0.0541 | -0.0567 | -0.0288 | 0 | -0.0353 | -0.0683 | 0.0249 | -0.0263 | -0.0158 |
| COc1nnc2ccc(N3CCC(c4ccc(OCCN5CCN(C)C(=O)[C@H]5C)cc4)CC3)nn12 [AZD5153] + Cc1c2c(nn1C)CSCc1cc(n(C)n1)CSc1cc(c3ccccc3c1)OCCCc1c(C(=O)O)n(C)c3c-2c(Cl)ccc13 [AZD5991] (first compound max 1 µM, 7x7, partner max 1 µM) | -0.0333 | -0.0105 | -0.0285 | -0.0218 | 0.0004 | 0.0297 | -0.0484 | -0.0208 | -0.0558 | -0.0187 | -0.0263 | -0.0417 | -0.0262 | -0.0765 | -0.0495 | -0.057 | -0.0732 | 0.0094 | -0.032 | -0.0115 |
| CC1(C)CCC(CN2CCN(c3ccc(C(=O)NS(=O)(=O)c4ccc(NCC5CCOCC5)c([N+](=O)[O-])c4)c(Oc4cnc5[nH]ccc5c4)c3)CC2)=C(c2ccc(Cl)cc2)C1 [Venetoclax] + CN(C)CCCOc1ccc(-c2ccc3ncc4c(c3c2)n(C2CCOCC2)c(=O)n4C)cn1 [AZD0156] (first compound max 1 µM, 7x7, partner max 1 µM) | -0.0403 | -0.0146 | -0.0307 | -0.0128 | -0.0045 | -0.0087 | -0.0158 | 0.0025 | -0.0012 | -0.0031 | -0.0043 | -0.0123 | -0.0414 | -0.0156 | -0.0012 | 0.0067 | 0.0426 | 0.0116 | -0.0367 | 0.04 |
